Experimental data published in PubChem BioAssay (NCI).
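Interpolation was linear, between the two tested concentrations surrounding the appropriate level; five concentrations were tested over 48 hours in 96-well plates. GI50 is the concentration that inhibits growth by half. TGI marks complete inhibition of growth.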

Legend:
Experiment in all cases: inhibition of tumour cell growth, NCI panel, 48 h
OVCAR-4 ovarian = system: OVCAR-4 ovarian
COLO 205 colon = system: COLO 205 colon
MDA-MB-231 breast = system: MDA-MB-231 breast
OVCAR-5 ovarian = system: OVCAR-5 ovarian
SK-MEL-5 melanoma = system: SK-MEL-5 melanoma
UACC-62 melanoma = system: UACC-62 melanoma
HCC-2998 colon = system: HCC-2998 colon
M14 melanoma = system: M14 melanoma
RXF 393 renal = system: RXF 393 renal
NCI-H522 lung = system: NCI-H522 lung
U251 CNS = system: U251 CNS
MOLT-4 leukemia = system: MOLT-4 leukemia
SR leukemia = system: SR leukemia
A498 renal = system: A498 renal
T-47D breast = system: T-47D breast
HS 578T breast = system: HS 578T breast
SNB-75 CNS = system: SNB-75 CNS
RPMI-8226 leukemia = system: RPMI-8226 leukemia
SK-MEL-2 melanoma = system: SK-MEL-2 melanoma
A549 NSCLC = system: A549 NSCLC
MCF7 breast = system: MCF7 breast
NCI/ADR-RES ovarian = system: NCI/ADR-RES ovarian
DU-145 prostate = system: DU-145 prostate
NCI-H460 lung = system: NCI-H460 lung
SNB-19 CNS = system: SNB-19 CNS
SF-268 CNS = system: SF-268 CNS
NCI-H23 lung = system: NCI-H23 lung
MALME-3M melanoma = system: MALME-3M melanoma

Question: How did the GI50 (OVCAR-4 ovarian) turn out when `c1ccc(-c2nn(-c3ccccc3)[n+](-c3cccc4ccccc34)n2)cc1` was run?
Answer: The GI50 was 0.394 µM.

Question: And the TGI (OVCAR-4 ovarian)?
Answer: The TGI was 12.4 µM.

Question: And the GI50 (COLO 205 colon)?
Answer: Its GI50 is 0.313 µM.

Question: And the TGI (COLO 205 colon)?
Answer: The TGI was 1.28 µM.

Question: And the GI50 (MDA-MB-231 breast)?
Answer: The GI50 was 0.787 µM.

Question: And the TGI (MDA-MB-231 breast)?
Answer: Its TGI is 12.9 µM.

Question: What about the GI50 (OVCAR-5 ovarian) of the same molecule?
Answer: Its GI50 is 4.78 µM.

Question: What about the TGI (OVCAR-5 ovarian) of the same molecule?
Answer: Its TGI is 63.2 µM.

Question: And the GI50 (SK-MEL-5 melanoma)?
Answer: The GI50 was 0.674 µM.

Question: What about the TGI (SK-MEL-5 melanoma) of the same molecule?
Answer: Its TGI is 4.1 µM.

Question: What about the GI50 (UACC-62 melanoma) of the same molecule?
Answer: The GI50 was 1.14 µM.

Question: And the TGI (UACC-62 melanoma)?
Answer: Its TGI is 3.59 µM.

Question: What about the GI50 (HCC-2998 colon) of the same molecule?
Answer: The GI50 was 1.91 µM.

Question: What about the TGI (HCC-2998 colon) of the same molecule?
Answer: Its TGI is 14.8 µM.

Question: What about the GI50 (M14 melanoma) of the same molecule?
Answer: Its GI50 is 3.09 µM.

Question: What about the TGI (M14 melanoma) of the same molecule?
Answer: The TGI was 23.1 µM.

Question: What about the GI50 (RXF 393 renal) of the same molecule?
Answer: Its GI50 is 2.24 µM.

Question: And the TGI (RXF 393 renal)?
Answer: The TGI was 31.4 µM.

Question: And the GI50 (NCI-H522 lung)?
Answer: The GI50 was 0.979 µM.

Question: And the TGI (NCI-H522 lung)?
Answer: Its TGI is 10.9 µM.

Question: And the GI50 (U251 CNS)?
Answer: Its GI50 is 0.967 µM.

Question: And the TGI (U251 CNS)?
Answer: The TGI was over 100 µM.

Question: And the GI50 (MOLT-4 leukemia)?
Answer: The GI50 was 1.3 µM.

Question: What about the TGI (MOLT-4 leukemia) of the same molecule?
Answer: The TGI was 15.8 µM.

Question: What about the GI50 (SR leukemia) of the same molecule?
Answer: The GI50 was 0.644 µM.

Question: What about the TGI (SR leukemia) of the same molecule?
Answer: Its TGI is 7.93 µM.

Question: And the GI50 (A498 renal)?
Answer: Its GI50 is 2.91 µM.

Question: And the TGI (A498 renal)?
Answer: The TGI was 33.8 µM.

Question: And the GI50 (T-47D breast)?
Answer: The GI50 was 0.825 µM.

Question: And the TGI (T-47D breast)?
Answer: The TGI was 17.4 µM.

Question: And the GI50 (HS 578T breast)?
Answer: The GI50 was 1.77 µM.

Question: And the TGI (HS 578T breast)?
Answer: The TGI was over 100 µM.

Question: What about the GI50 (SNB-75 CNS) of the same molecule?
Answer: The GI50 was 1.94 µM.

Question: What about the TGI (SNB-75 CNS) of the same molecule?
Answer: The TGI was 14.8 µM.

Question: And the GI50 (RPMI-8226 leukemia)?
Answer: The GI50 was 0.472 µM.

Question: What about the TGI (RPMI-8226 leukemia) of the same molecule?
Answer: Its TGI is over 100 µM.

Question: And the GI50 (SK-MEL-2 melanoma)?
Answer: The GI50 was 2.92 µM.

Question: And the TGI (SK-MEL-2 melanoma)?
Answer: The TGI was 12 µM.

Question: What about the GI50 (A549 NSCLC) of the same molecule?
Answer: The GI50 was 2.65 µM.

Question: And the TGI (A549 NSCLC)?
Answer: The TGI was over 100 µM.

Question: What about the GI50 (MCF7 breast) of the same molecule?
Answer: The GI50 was 0.335 µM.

Question: And the TGI (MCF7 breast)?
Answer: Its TGI is 10.6 µM.

Question: What about the GI50 (NCI/ADR-RES ovarian) of the same molecule?
Answer: The GI50 was over 100 µM.

Question: And the TGI (NCI/ADR-RES ovarian)?
Answer: Its TGI is over 100 µM.

Question: What about the GI50 (DU-145 prostate) of the same molecule?
Answer: The GI50 was 4.26 µM.

Question: What about the TGI (DU-145 prostate) of the same molecule?
Answer: Its TGI is over 100 µM.

Question: And the GI50 (NCI-H460 lung)?
Answer: The GI50 was 1.43 µM.

Question: What about the TGI (NCI-H460 lung) of the same molecule?
Answer: The TGI was 10.4 µM.

Question: What about the GI50 (SNB-19 CNS) of the same molecule?
Answer: Its GI50 is 2.01 µM.

Question: What about the TGI (SNB-19 CNS) of the same molecule?
Answer: The TGI was over 100 µM.

Question: What about the GI50 (SF-268 CNS) of the same molecule?
Answer: The GI50 was 2.04 µM.

Question: And the TGI (SF-268 CNS)?
Answer: The TGI was 20.5 µM.

Question: What about the GI50 (NCI-H23 lung) of the same molecule?
Answer: The GI50 was 0.994 µM.

Question: And the TGI (NCI-H23 lung)?
Answer: The TGI was 12.8 µM.

Question: What about the GI50 (MALME-3M melanoma) of the same molecule?
Answer: The GI50 was 0.333 µM.

Question: And the TGI (MALME-3M melanoma)?
Answer: The TGI was 1.13 µM.
